Results reported in PubChem BioAssay AID743175 (Broad Institute, 2013).
Active and inactive are the calls of the source. How the calls were made is not given here.

tested on: Mycobacterium tuberculosis non-replicating, growth inhibition plate reader; test: inhibitor activity on non-replicating M. tuberculosis, dose response, plate reader, dry powder (AID 743175); conditions: not given

Structure (SMILES)	AC90
O=C(Nc1nc2ccccc2[nH]1)c1cccc(Cl)c1	11.4 µM
COC(=O)COc1ccc2c(=O)c(Oc3ccccc3)c(C)oc2c1	> 38 µM (inactive)
O=C(COc1cccc2ccccc12)Nc1nc2ccccc2[nH]1	> 38 µM (inactive)

tested on: not listed separately; test: as above; conditions: Mycobacterium tuberculosis non-replicating, growth inhibition plate reader; at 23.5 µM (top of the series)

Structure (SMILES)	activity change, negative = inhibition
COCCNC(=O)C[C@@H]1C[C@@H]2c3cc(NC(=O)Nc4ccc(C(F)(F)F)cc4)ccc3O[C@@H]2[C@H](CO)O1	6.32% (inactive)
Cc1noc(C)c1NC(=O)Nc1ccc2c(c1)C(=O)N(C)[C@H]1CC[C@H](CC(=O)NCc3ccc(Cl)cc3)O[C@H]1CO2	-5.96% (inactive)
Cc1noc(C)c1NC(=O)Nc1ccc2c(c1)C(=O)N(C)[C@@H]1CC[C@H](CC(=O)NCc3ccc(Cl)cc3)O[C@H]1CO2	-0.708% (inactive)
CNC[C@H]1OCCCC[C@@H](C)Oc2ccc(NC(=O)CCCN(C)C)cc2C(=O)N([C@H](C)CO)C[C@@H]1C	0.469% (inactive)
Cc1noc(C)c1NC(=O)Nc1ccc2c(c1)C(=O)N(C)[C@@H]1CC[C@@H](CC(=O)NCc3ccc(Cl)cc3)O[C@H]1CO2	-4.47% (inactive)
C[C@H](C(=O)N(C)C[C@@H]1OCc2ccccc2-c2ccccc2C(=O)N([C@H](C)CO)C[C@H]1C)c1ccccc1	-2.02% (inactive)
O=C(C[C@@H]1C=C[C@H](NC(=O)Nc2cc(F)ccc2F)[C@H](CO)O1)NCc1ccc2c(c1)OCO2	-1.22% (inactive)
Cc1noc(C)c1NC(=O)Nc1ccc2c(c1)C(=O)N(C)[C@H]1CC[C@@H](CC(=O)NCc3ccc(Cl)cc3)O[C@@H]1CO2	-7.13% (inactive)
C[C@@H]1CN([C@@H](C)CO)C(=O)c2ccccc2-c2ccccc2CO[C@H]1CN(C)C(=O)[C@H](C)c1ccccc1	6.24% (inactive)
O=C(C[C@@H]1C=C[C@@H](NC(=O)Nc2cc(F)ccc2F)[C@@H](CO)O1)NCc1ccc2c(c1)OCO2	2.62% (inactive)

same assay, conditions: Mycobacterium tuberculosis non-replicating, growth inhibition plate reader; at 26 µM (top of the series)

Structure (SMILES)	activity change, negative = inhibition
C[C@@H]1CN([C@H](C)CO)C(=O)c2ccccc2-c2ccccc2CO[C@H]1CN(C)C(=O)[C@H](C)c1ccccc1	3.43% (inactive)
C[C@@H]1CN([C@@H](C)CO)C(=O)c2ccccc2-c2ccccc2CO[C@@H]1CN(C)C(=O)[C@H](C)c1ccccc1	5.94% (inactive)
CNC[C@@H]1OCCCC[C@@H](C)Oc2ccc(NC(=O)CCCN(C)C)cc2C(=O)N([C@@H](C)CO)C[C@H]1C	6.36% (inactive)
COCCNC(=O)C[C@@H]1C[C@H]2c3cc(NC(=O)Nc4ccc(C(F)(F)F)cc4)ccc3O[C@H]2[C@@H](CO)O1	2.69% (inactive)
C[C@H](C(=O)N(C)C[C@H]1OCc2ccccc2-c2ccccc2C(=O)N([C@H](C)CO)C[C@H]1C)c1ccccc1	-2.72% (inactive)
Cc1noc(C)c1NC(=O)Nc1ccc2c(c1)C(=O)N(C)[C@@H]1CC[C@@H](CC(=O)NCc3ccc(Cl)cc3)O[C@@H]1CO2	-1.24% (inactive)
COc1ccccc1C#Cc1ccc([C@H]2[C@@H](C#N)N(C(=O)C3CC3)[C@@H]2CO)cc1	-31.8% (inactive)
Cc1noc(C)c1NC(=O)Nc1ccc2c(c1)C(=O)N(C)[C@H]1CC[C@H](CC(=O)NCc3ccc(Cl)cc3)O[C@@H]1CO2	-8.85% (inactive)
O=C(C[C@@H]1C=C[C@@H](NC(=O)Nc2cc(F)ccc2F)[C@H](CO)O1)NCc1ccc2c(c1)OCO2	-1.51% (inactive)
O=C(C[C@H]1C[C@H]2c3cc(NC(=O)c4cccnc4)ccc3O[C@H]2[C@@H](CO)O1)NCC(F)(F)F	4.47% (inactive)
C[C@H](C(=O)N(C)C[C@@H]1OCc2ccccc2-c2ccccc2C(=O)N([C@H](C)CO)C[C@@H]1C)c1ccccc1	-7.59% (inactive)
CNC[C@H]1OCCCC[C@H](C)Oc2ccc(NC(=O)CCCN(C)C)cc2C(=O)N([C@H](C)CO)C[C@@H]1C	0.293% (inactive)
COCCNC(=O)C[C@@H]1C[C@H]2c3cc(NC(=O)Nc4ccc(C(F)(F)F)cc4)ccc3O[C@H]2[C@H](CO)O1	-6% (inactive)
C[C@H](CO)N1C[C@H](C)[C@H](CN(C)C(=O)[C@H](C)c2ccccc2)OCc2ccccc2-c2ccccc2C1=O	-5.31% (inactive)
C[C@H](C(=O)N(C)C[C@H]1OCc2ccccc2-c2ccccc2C(=O)N([C@@H](C)CO)C[C@H]1C)c1ccccc1	-0.472% (inactive)
C[C@H](CO)N1C[C@H](C)[C@@H](CN(C)C(=O)[C@H](C)c2ccccc2)OCc2ccccc2-c2ccccc2C1=O	4.38% (inactive)
O=C(C[C@H]1C=C[C@H](NC(=O)Nc2cc(F)ccc2F)[C@H](CO)O1)NCc1ccc2c(c1)OCO2	2.59% (inactive)
O=C(C[C@@H]1C[C@@H]2c3cc(NC(=O)c4cccnc4)ccc3O[C@@H]2[C@H](CO)O1)NCC(F)(F)F	-0.328% (inactive)
COCCNC(=O)C[C@H]1C[C@H]2c3cc(NC(=O)Nc4ccc(C(F)(F)F)cc4)ccc3O[C@H]2[C@H](CO)O1	5.95% (inactive)
COCCNC(=O)C[C@H]1C[C@@H]2c3cc(NC(=O)Nc4ccc(C(F)(F)F)cc4)ccc3O[C@@H]2[C@H](CO)O1	-0.81% (inactive)
C[C@@H](C(=O)N(C)C[C@@H]1OCc2ccccc2-c2ccccc2C(=O)N([C@@H](C)CO)C[C@@H]1C)c1ccccc1	3.38% (inactive)
CNC[C@H]1OCCCC[C@H](C)Oc2ccc(NC(=O)CCCN(C)C)cc2C(=O)N([C@@H](C)CO)C[C@@H]1C	-0.478% (inactive)

Structure (SMILES)	activity change, negative = inhibition
O=C(C[C@H]1C=C[C@H](NC(=O)Nc2cc(F)ccc2F)[C@@H](CO)O1)NCc1ccc2c(c1)OCO2	-6.29% (inactive)
C[C@@H]1CN([C@H](C)CO)C(=O)c2ccccc2-c2ccccc2CO[C@@H]1CN(C)C(=O)[C@H](C)c1ccccc1	-3.88% (inactive)
O=C(C[C@@H]1C[C@H]2c3cc(NC(=O)c4cccnc4)ccc3O[C@H]2[C@H](CO)O1)NCC(F)(F)F	4.14% (inactive)
O=C(C[C@@H]1C=C[C@H](NC(=O)Nc2cc(F)ccc2F)[C@@H](CO)O1)NCc1ccc2c(c1)OCO2	-6.79% (inactive)
COc1ccccc1C#Cc1ccc([C@@H]2[C@@H](C#N)N(C(=O)C3CC3)[C@@H]2CO)cc1	-12.4% (inactive)
Cc1noc(C)c1NC(=O)Nc1ccc2c(c1)C(=O)N(C)[C@@H]1CC[C@H](CC(=O)NCc3ccc(Cl)cc3)O[C@@H]1CO2	-6.75% (inactive)
C[C@H](C(=O)N(C)C[C@@H]1OCc2ccccc2-c2ccccc2C(=O)N([C@@H](C)CO)C[C@H]1C)c1ccccc1	1.76% (inactive)
COCCNC(=O)C[C@H]1C[C@@H]2c3cc(NC(=O)Nc4ccc(C(F)(F)F)cc4)ccc3O[C@@H]2[C@@H](CO)O1	-5.53% (inactive)
COCCNC(=O)C[C@@H]1C[C@@H]2c3cc(NC(=O)Nc4ccc(C(F)(F)F)cc4)ccc3O[C@@H]2[C@@H](CO)O1	9.37% (inactive)
C[C@H](C(=O)N(C)C[C@H]1OCc2ccccc2-c2ccccc2C(=O)N([C@@H](C)CO)C[C@@H]1C)c1ccccc1	-9.24% (inactive)
CNC[C@@H]1OCCCC[C@@H](C)Oc2ccc(NC(=O)CCCN(C)C)cc2C(=O)N([C@H](C)CO)C[C@H]1C	-0.491% (inactive)
O=C(C[C@H]1C=C[C@@H](NC(=O)Nc2cc(F)ccc2F)[C@H](CO)O1)NCc1ccc2c(c1)OCO2	-2.19% (inactive)
C[C@H](C(=O)N(C)C[C@@H]1OCc2ccccc2-c2ccccc2C(=O)N([C@@H](C)CO)C[C@@H]1C)c1ccccc1	-3.21% (inactive)
O=C(C[C@H]1C[C@@H]2c3cc(NC(=O)c4cccnc4)ccc3O[C@@H]2[C@@H](CO)O1)NCC(F)(F)F	2.49% (inactive)
C[C@@H](C(=O)N(C)C[C@H]1OCc2ccccc2-c2ccccc2C(=O)N([C@@H](C)CO)C[C@@H]1C)c1ccccc1	-10.5% (inactive)
COCCNC(=O)C[C@H]1C[C@H]2c3cc(NC(=O)Nc4ccc(C(F)(F)F)cc4)ccc3O[C@H]2[C@@H](CO)O1	6.87% (inactive)
Cc1noc(C)c1NC(=O)Nc1ccc2c(c1)C(=O)N(C)[C@H]1CC[C@@H](CC(=O)NCc3ccc(Cl)cc3)O[C@H]1CO2	0.473% (inactive)
O=C(C[C@H]1C[C@H]2c3cc(NC(=O)c4cccnc4)ccc3O[C@H]2[C@H](CO)O1)NCC(F)(F)F	10.5% (inactive)
O=C(C[C@H]1C=C[C@@H](NC(=O)Nc2cc(F)ccc2F)[C@@H](CO)O1)NCc1ccc2c(c1)OCO2	4.07% (inactive)
CNC[C@@H]1OCCCC[C@@H](C)Oc2ccc(NC(=O)CCCN(C)C)cc2C(=O)N([C@H](C)CO)C[C@@H]1C	-5.36% (inactive)
C[C@H](C(=O)N(C)C[C@H]1OCc2ccccc2-c2ccccc2C(=O)N([C@H](C)CO)C[C@@H]1C)c1ccccc1	-6.85% (inactive)

same assay, conditions: Mycobacterium tuberculosis non-replicating, growth inhibition plate reader; at 38 µM (top of the series)

Structure (SMILES)	activity change, negative = inhibition
O=C(OCCCCN1C(=O)c2ccccc2C1=O)c1ccc(Br)o1	-2.9% (inactive)
C=CCn1c(NC(=O)c2ccccc2)nc2ccccc21	-76.7% (inactive)
CCOC(=O)c1c(C)n(C)c2ccc(OC(C)C(=O)OC)cc12 (stereo not given)	-6.52% (inactive)
CCCOC(=O)c1ccc(NC(=O)c2ccc(Br)o2)cc1	-12.8% (inactive)
CCCC(C)C(=O)Nc1ccc(Cl)cn1 (stereo not given)	-14.4% (inactive)
NC(=O)COc1ccc2cc(-c3ccc(F)cc3)c(=O)oc2c1	-7.91% (inactive)
Fc1ccc(-c2ccc(CNCc3ccccn3)o2)cc1Cl	-52% (inactive)
O=C(OCc1ccc(Cl)c(Cl)c1)c1ccccn1	-7.55% (inactive)
CC(=O)c1ccc(NC(=O)c2cc(CC(C)C)on2)cc1	-14.7% (inactive)
